Results: paper PMC5693986, “Atomic resolution snapshot of Leishmania ribosome inhibition by the aminoglycoside paromomycin” (Nature Communications, 2017)
Values joined by “and” are separate entries in the source; they are usually repeats but may differ in a detail not shown here. Equal values may be shown once. Read-outs that look alike come from different tables or passages of the source.

Key:
[1] = biological target: rabbit reticulocyte lysate translation; test: In vitro inhibition of translation in rabbit reticulocyte lysates (luciferase reporter); assay type: biochemical; settings: mean ± SE of at least three independent repeats, read-out: Inhibition of translation—IC50, Reticulocytes
From the text: (§1) In order to assess cytosolic ribosome susceptibility and selectivity to putative anti-leishmanial compounds, we performed three different cell-free transcription-translation assays in S30 extracts of E. coli (Promega), rabbit reticulocytes (Promega) and L. tarentolae (Jena Bioscience). […] The ribosomes derived from this species are highly similar to L. donovani ribosomes. Three plasmids, compatible with each extract system, were used in this study: pBESTlucTM (Promega) for the prokaryotic translation assay, Luciferase T7 DNA (Promega) for the reticulocytes and pLEXSY-invitro2-EGFP (Jena Bioscience) for Leishmania. Firefly luciferase was used as a reporter gene for the bacterial and reticulocyte systems and EGFP for Leishmania. […] Assays were performed in white polystyrene 96-well flat bottom plates (Nunc) for the luciferase and black polystyrene 384-well flat-bottom plates (Greiner) for the EGFP. Incubation times were 60 min at 37 °C, 90 min at 30 °C and 120 min at 26 °C for the bacterial, reticulocyte and Leishmania systems, respectively. Reactions were stopped by quick snap cooling followed by a 5-min incubation on ice. Luciferase activity was measured for each well following the addition of 50 μl Luciferase Assay reagent (Promega) by recording the chemi-luminescence signal on […] (Tecan). EGFP fluorescence (λ ex = 488 nm; λ em = 507 nm) was recorded on Tecan Infinite R®F200 microplate reader (Tecan). Extracts lacking the circular DNA template were used as negative control to calculate the fluorescence/chemi-luminescence background. Reaction mixtures without compound presence were used as positive control and were regarded as 100% translation. At least six different concentrations were used to plot each translation inhibition curve, experiments were performed in three independent repeats in duplicates. Half-maximal inhibition concentration (IC50) values were calculated from the concentration–response fitting curves of using GraFit7 software.

[2] = system: leishmanial decoding (UGA stop codon read-through); test: In vitro assessment of misreading (dual-luciferase UGA stop codon read-through) in L. tarentolae lysates; assay type: biochemical; settings: for Misreading activity (UGA stop codon read-through) at IC50 levels: at the compound's IC50 concentration, L. tarentolae lysates
From the text: To examine AG modes of action in Leishmania, we designed a dual-reporter assay whereby an in-frame linker containing a UGA stop mutation was introduced in between two genes encoding Renilla and Firefly luciferases cloned into an in vitro Leishmania expression system. A similar system was previously used to assess stop codon read-through events in bacteria as well as other eukaryotes, and as these levels seemed to correspond to tRNA misreading levels it has also been previously used to evaluate infidelity of translation[38],[39].
The content of a p2luc dual-luciferase derived from an SV-40 vector with either wild type or an in-frame TGA stop codon poly-linker was cloned into pLEXSY-invitro2 that is compatible with Leishmania in vitro translation (Jena Bioscience). SV-40 constructs were a generous gift by Professor Timor Baasov. Cloning has been performed by restriction-free (RF) PCR methodology as previously described by Unger et al.[40].
5′-[…]-3′ and 5′-[…]-3′ were used as forward and reverse primers, respectively. Primers were produced by custom design (Sigma). The in vitro misreading assays were performed in L. tarentolae lysates and were designed similarly to the inhibition of translation assay reported herein. The main modifications were that the final reaction volume was adjusted to 20 μl and that the assay has been performed in white polystyrene 96-well flatbottom plates (Nunc). Luciferase activity was determined after 120 min incubation at 26 °C, using the Dual luciferase reporter assay system (Promega) and was performed according to the manufacturer’s instructions.

[3] = system: bacterial translation (E. coli S30 extract); test: In vitro inhibition of translation in E. coli S30 extracts (luciferase reporter); assay type: biochemical; settings: mean ± SE of at least three independent repeats, read-out: Inhibition of translation—IC50, Bacteria
From the text: as §1

[4] = system: leishmanial cytosolic ribosome; test: In vitro inhibition of translation in L. tarentolae lysates (cell-free transcription-translation, EGFP reporter); assay type: biochemical; settings: for IC50: L. tarentolae lysates, mean ± SE of at least three independent repeats, read-out: Inhibition of translation—IC50, Leishmania
From the text: as §1

[5] = system: bacterial translation (E. coli S30 extract); design: method as in PMID 26264664; settings: mean ± SE, read-out: Inhibition of translation—IC50, Bacteria; cited from earlier work
[6] = system: rabbit reticulocyte lysate translation; design: method as in PMID 26264664; settings: rabbit reticulocyte lysates; mean ± SE; read-out: Inhibition of translation—IC50, Reticulocytes; cited from earlier work

Row | Structure (SMILES) | IC50 [1] | Misreading activity (UGA stop codon read-through) at IC50 levels [2] | IC50 [3] | IC50 [4] | Reduced activity in Leishmania compared to bacteria (inhibition of translation) ([4]; Leishmania versus bacterial ribosome, from Table 1) | IC50 [5] | IC50 [6] | Misreading of the genetic code (result in words) ([2]; at concentrations corresponding to its IC50 value)
1 | CN[C@@H]1[C@@H](O[C@H]2O[C@H](CO)[C@@H](N)[C@H](O)[C@H]2O)OC2C[C@@H](N)[C@@H](O[C@H]3[C@H](O)[C@@H](O)[C@H](N)C[C@@H]3N)OC2[C@@H]1O (stereo partly shown) [APR, apramycin] | 29 ± 6 µM | 5% | 49 ± 3 nM | 201 ± 16.1 µM | 4 orders of magnitude |  |  | 
2 | CN[C@@H]1[C@@H](O)[C@@H](O[C@@H]2[C@@H](O)[C@H](O[C@H]3O[C@H]([C@@H](C)O)[C@@H](O)[C@H](O)[C@H]3N)[C@@H](N)C[C@H]2N)OC[C@]1(C)O [G418, geneticin] |  |  |  | 0.15 µM and 0.153 µM |  | 9 ± 1.5 nM | 2 ± 0.3 µM | 
3 | CNC(C)C1CCC(N)C(OC2C(N)CC(N)C(OC3OCC(C)(O)C(NC)C3O)C2O)O1 (stereo not shown) [GEN, gentamicin] | 62 ± 9 µM |  | 28 ± 4 nM | 18.4 µM |  |  |  | 
4 | CNC1CC(N)C(O)C(OC2OC(CO)C(O)C3OC4(OC(C(N)CO)C(O)C(O)C4O)OC23)C1O (stereo not shown) [HYG, hygromycin B] | 0.8 ± 0.1 µM |  | 11 ± 2 nM | 0.065 µM and 0.0647 µM |  |  |  | does not induce misreading
5 | NC[C@@H]1O[C@H](O[C@H]2[C@@H](O)[C@H](O[C@@H]3[C@@H](O)[C@H](N)C[C@H](N)[C@H]3O[C@H]3O[C@H](CN)[C@@H](O)[C@H](O)[C@H]3N)O[C@@H]2CO)[C@H](N)[C@@H](O)[C@@H]1O [NEO, neomycin B] | 28 ± 5 µM |  | 11 ± 1 nM | 82.4 µM |  |  |  | 
6 | NC[C@@H]1O[C@H](O[C@H]2[C@@H](O)[C@H](O[C@@H]3[C@@H](O)[C@H](N)C[C@H](N)[C@H]3O[C@H]3O[C@H](CO)[C@@H](O)[C@H](O)[C@H]3N)O[C@@H]2CO)[C@H](N)[C@@H](O)[C@@H]1O [PAR, paromomycin] |  | 26% |  | 3.62 ± 0.176 µM |  | 51 ± 5 nM | 57 ± 4 µM | 
